Measurements: article PMC4774911, “Biochemical Screening of Five Protein Kinases from Plasmodium falciparum against 14,000 Cell-Active Compounds” (PLoS ONE, 2016)
Where “and” joins values, the source holds several entries; their conditions need not be identical. Equal entries are not always repeated.

Legend:
Assay in all cases: biochemical
[1] = target: T1, MAP2K4 (Homo sapiens, UniProt P45985)
T1 sequence (P45985 1-399): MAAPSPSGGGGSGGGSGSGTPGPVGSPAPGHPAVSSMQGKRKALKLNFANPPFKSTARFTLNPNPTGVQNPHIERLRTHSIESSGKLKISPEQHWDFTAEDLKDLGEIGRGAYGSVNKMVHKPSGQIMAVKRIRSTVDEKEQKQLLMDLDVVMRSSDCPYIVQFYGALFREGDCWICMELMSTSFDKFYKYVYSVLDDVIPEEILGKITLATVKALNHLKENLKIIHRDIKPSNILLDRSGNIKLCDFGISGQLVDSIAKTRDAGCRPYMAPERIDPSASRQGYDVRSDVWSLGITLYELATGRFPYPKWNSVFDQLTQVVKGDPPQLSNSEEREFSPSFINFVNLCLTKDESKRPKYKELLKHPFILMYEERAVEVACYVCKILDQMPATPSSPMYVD

[2] = target: CSNK2A2 (Homo sapiens, UniProt P19784)
[3] = target: PIP5K3 (Homo sapiens, UniProt Q9Y2I7)
Sequence of PIP5K3 (Q9Y2I7 whole entry): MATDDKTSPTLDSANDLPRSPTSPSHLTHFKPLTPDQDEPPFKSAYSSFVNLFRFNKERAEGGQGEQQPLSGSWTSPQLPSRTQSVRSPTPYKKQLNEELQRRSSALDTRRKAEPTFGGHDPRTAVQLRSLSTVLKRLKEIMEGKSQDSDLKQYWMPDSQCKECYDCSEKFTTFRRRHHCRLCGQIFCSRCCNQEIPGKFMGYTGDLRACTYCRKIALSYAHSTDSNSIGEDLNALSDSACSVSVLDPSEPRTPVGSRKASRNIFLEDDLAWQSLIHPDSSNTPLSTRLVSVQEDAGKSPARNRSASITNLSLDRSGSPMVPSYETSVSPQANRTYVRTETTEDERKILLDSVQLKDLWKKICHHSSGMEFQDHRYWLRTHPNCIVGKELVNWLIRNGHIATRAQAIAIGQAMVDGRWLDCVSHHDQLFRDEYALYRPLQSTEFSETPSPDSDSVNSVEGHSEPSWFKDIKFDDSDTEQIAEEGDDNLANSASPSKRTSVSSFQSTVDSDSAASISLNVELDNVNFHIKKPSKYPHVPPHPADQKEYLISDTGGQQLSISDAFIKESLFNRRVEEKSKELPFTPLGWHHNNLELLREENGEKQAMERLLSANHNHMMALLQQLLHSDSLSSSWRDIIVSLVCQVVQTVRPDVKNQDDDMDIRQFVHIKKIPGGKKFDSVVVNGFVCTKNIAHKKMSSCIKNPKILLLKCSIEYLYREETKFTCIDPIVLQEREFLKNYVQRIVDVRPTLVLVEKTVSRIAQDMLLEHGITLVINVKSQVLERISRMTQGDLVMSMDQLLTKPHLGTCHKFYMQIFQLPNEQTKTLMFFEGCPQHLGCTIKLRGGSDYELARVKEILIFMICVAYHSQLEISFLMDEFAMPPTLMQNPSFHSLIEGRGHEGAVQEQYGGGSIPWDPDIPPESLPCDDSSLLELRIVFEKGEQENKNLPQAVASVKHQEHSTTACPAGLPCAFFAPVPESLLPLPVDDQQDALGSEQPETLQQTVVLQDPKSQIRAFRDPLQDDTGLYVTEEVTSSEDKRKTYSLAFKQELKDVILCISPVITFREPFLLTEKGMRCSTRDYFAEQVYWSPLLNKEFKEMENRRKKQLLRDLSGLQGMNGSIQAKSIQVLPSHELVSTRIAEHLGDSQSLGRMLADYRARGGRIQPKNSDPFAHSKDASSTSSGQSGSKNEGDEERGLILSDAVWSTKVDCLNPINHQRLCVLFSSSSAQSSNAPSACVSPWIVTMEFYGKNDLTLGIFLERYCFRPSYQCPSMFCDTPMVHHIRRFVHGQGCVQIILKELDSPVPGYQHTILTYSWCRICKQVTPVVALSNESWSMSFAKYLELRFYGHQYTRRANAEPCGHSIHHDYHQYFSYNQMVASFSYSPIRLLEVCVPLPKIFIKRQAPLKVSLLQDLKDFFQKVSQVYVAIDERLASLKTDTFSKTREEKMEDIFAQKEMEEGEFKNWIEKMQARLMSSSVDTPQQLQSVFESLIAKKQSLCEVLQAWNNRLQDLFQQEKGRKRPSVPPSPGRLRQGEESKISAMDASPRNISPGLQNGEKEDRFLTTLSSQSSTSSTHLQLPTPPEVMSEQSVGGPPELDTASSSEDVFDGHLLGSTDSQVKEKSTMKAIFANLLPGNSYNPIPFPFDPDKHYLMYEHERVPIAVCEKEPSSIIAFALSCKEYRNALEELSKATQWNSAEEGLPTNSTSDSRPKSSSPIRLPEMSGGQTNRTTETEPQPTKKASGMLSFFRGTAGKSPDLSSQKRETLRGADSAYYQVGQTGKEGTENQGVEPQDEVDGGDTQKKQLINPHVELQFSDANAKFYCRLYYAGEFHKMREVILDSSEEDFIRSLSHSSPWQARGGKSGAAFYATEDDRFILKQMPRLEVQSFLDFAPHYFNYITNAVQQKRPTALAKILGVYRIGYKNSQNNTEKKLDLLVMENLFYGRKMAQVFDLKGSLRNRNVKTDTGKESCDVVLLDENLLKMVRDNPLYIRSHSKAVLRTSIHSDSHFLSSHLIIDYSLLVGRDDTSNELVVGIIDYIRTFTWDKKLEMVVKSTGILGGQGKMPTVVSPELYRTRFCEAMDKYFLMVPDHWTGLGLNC

[4] = target: CIT (Homo sapiens, UniProt O14578)
Sequence of CIT (O14578 whole entry): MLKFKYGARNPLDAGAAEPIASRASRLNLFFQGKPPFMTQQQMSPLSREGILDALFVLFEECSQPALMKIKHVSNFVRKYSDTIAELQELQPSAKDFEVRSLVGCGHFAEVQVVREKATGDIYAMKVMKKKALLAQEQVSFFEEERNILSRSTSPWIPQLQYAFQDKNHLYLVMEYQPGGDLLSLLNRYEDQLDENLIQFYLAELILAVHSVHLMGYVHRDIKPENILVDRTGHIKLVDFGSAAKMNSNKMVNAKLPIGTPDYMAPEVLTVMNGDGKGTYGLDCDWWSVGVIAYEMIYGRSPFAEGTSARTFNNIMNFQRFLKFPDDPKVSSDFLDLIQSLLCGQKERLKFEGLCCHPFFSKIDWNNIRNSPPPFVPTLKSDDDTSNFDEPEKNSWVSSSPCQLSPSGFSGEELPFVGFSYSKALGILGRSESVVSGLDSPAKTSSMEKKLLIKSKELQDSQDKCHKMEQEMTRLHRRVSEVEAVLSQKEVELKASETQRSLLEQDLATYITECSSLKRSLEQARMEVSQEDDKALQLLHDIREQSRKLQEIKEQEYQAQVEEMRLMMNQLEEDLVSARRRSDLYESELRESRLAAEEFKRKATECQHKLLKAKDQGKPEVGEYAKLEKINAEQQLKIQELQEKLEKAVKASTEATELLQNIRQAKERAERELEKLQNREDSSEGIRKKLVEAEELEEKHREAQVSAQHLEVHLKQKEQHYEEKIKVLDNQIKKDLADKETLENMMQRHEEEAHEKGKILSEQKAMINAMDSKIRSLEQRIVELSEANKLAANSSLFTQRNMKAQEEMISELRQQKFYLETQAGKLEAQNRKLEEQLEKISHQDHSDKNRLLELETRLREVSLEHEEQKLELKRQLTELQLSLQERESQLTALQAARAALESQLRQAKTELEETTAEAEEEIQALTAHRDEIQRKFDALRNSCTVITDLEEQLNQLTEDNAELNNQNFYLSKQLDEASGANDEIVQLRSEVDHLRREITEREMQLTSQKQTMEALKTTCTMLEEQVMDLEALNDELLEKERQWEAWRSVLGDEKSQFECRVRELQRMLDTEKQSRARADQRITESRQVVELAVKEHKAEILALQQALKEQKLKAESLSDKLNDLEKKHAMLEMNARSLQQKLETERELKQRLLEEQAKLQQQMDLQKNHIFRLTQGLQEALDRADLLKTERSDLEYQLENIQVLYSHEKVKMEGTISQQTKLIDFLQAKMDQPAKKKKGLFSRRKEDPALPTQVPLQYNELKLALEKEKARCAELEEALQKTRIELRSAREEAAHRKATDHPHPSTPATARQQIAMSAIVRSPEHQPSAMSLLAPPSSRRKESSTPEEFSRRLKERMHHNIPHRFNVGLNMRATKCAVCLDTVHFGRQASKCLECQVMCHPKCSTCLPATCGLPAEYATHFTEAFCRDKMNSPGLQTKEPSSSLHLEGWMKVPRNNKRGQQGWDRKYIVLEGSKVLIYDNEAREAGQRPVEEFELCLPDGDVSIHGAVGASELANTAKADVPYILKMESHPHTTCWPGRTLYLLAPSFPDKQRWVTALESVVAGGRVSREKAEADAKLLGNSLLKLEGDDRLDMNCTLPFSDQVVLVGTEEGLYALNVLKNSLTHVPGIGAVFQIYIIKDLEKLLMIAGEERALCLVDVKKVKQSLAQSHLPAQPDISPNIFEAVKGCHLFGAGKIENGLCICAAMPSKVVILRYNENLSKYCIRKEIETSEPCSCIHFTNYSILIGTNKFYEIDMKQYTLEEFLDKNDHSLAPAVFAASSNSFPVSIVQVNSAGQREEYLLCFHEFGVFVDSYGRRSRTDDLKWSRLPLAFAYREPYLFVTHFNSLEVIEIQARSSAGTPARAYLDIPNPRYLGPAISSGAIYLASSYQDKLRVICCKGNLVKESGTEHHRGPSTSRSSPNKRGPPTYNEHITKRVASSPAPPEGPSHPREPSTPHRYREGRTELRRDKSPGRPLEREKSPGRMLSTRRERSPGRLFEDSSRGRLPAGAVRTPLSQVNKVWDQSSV

[5] = target: MAP3K4 (Homo sapiens, UniProt Q9Y6R4)
[6] = target: SIK2 (Homo sapiens, UniProt Q9H0K1)
Sequence of SIK2 (Q9H0K1 whole entry): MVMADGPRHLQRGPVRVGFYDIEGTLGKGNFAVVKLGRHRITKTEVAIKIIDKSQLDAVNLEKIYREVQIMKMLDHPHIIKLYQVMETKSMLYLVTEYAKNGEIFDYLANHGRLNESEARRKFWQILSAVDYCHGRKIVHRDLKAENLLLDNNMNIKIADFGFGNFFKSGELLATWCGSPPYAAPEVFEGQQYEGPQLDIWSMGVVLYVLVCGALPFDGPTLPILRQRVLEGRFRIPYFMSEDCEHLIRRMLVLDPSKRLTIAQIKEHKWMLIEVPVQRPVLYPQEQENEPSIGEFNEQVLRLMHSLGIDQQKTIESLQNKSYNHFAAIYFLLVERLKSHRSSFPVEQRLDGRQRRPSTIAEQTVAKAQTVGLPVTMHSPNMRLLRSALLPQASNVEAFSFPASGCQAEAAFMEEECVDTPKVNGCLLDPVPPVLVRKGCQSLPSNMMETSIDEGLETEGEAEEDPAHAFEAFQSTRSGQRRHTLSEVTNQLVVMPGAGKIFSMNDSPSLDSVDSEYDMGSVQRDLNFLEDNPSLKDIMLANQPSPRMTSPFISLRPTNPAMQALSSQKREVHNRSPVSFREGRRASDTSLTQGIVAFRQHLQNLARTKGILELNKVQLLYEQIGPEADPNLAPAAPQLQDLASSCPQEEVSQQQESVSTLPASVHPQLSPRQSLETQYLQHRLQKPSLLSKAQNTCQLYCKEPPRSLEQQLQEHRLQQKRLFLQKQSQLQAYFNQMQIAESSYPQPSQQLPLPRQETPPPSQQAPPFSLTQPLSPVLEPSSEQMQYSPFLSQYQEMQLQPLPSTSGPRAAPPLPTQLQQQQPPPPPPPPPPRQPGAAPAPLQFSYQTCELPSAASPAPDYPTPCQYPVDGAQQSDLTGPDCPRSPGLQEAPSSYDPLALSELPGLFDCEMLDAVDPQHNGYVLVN

[7] = target: T2, EPHB6 (Homo sapiens, UniProt O15197)
T2 sequence (O15197 1-1021): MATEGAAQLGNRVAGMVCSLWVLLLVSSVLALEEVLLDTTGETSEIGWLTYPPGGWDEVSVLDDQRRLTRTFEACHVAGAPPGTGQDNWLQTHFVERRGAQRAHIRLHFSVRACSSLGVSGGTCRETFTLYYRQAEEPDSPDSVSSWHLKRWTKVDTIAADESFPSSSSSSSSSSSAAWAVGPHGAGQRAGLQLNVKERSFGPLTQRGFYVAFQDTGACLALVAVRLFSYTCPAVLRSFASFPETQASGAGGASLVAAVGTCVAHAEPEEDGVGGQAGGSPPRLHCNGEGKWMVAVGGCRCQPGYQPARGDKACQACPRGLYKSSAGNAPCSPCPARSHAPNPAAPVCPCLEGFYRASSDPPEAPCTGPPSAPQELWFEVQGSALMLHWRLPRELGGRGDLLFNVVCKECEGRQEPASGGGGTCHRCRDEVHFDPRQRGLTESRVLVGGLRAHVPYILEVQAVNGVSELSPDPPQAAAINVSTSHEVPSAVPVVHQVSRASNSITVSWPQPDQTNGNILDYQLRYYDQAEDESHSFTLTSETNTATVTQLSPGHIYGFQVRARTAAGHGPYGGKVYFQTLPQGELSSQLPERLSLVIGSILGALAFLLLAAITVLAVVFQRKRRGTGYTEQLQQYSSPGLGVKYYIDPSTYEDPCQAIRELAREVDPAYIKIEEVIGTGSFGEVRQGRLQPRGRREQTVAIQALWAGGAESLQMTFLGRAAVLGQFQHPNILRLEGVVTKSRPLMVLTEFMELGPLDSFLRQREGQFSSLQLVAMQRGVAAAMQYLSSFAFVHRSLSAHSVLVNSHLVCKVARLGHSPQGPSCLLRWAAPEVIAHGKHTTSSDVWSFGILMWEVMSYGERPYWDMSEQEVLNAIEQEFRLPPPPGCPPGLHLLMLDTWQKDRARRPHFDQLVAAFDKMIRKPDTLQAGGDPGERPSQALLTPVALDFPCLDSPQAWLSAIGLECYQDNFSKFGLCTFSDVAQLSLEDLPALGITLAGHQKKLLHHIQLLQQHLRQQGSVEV

[8] = target: T3, NEK2 (Homo sapiens, UniProt P51955)
T3 sequence (P51955 1-445): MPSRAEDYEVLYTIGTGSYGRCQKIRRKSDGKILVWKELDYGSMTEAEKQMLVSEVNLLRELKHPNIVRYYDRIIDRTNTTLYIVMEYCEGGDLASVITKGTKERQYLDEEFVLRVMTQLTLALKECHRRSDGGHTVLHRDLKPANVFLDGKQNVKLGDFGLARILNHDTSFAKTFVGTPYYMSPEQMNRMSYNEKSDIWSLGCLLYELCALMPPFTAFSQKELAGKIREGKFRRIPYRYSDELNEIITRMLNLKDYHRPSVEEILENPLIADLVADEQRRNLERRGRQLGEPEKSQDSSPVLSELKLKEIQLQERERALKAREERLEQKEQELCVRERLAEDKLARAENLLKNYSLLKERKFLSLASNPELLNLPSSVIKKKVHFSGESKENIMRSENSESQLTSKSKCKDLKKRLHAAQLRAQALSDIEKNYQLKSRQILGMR

[9] = target: LIMK1 (Homo sapiens, UniProt P53667)

SMILES	IC50 [1]	IC50 [2]	IC50 [3]	IC50 [4]	IC50 [5]	IC50 [6]	IC50 [7]	IC50 [8]	IC50 [9]
CN1CCN(c2ccc(Nc3ncc(C#N)c(Nc4ccccc4C(N)=O)n3)cc2)CC1.Cl [TCMDC-134116]	> 20 µM	≤ 32 nM	1300 nM and 1500 nM	5.7 µM and 5.8 µM	39 nM and 51 nM	≤ 32 nM and 35 nM	> 20 µM	0.57 µM and 0.25 µM	0.22 µM
Cl.NCC1(c2nc(-c3ccc(Cl)c(O)c3)c(-c3ccncc3)[nH]2)CCCCC1 [TCMDC-141154]	> 20 µM	> 20000 nM	1000 nM	0.16 µM and 0.28 µM	> 20000 nM	570 nM and 530 nM	> 20 µM	> 20 µM	> 20 µM
CN(C)CC(O)COc1ccc(Nc2ncc([N+](=O)[O-])c(Nc3ccccc3O)n2)cc1.O=C(O)C(F)(F)F (stereo not drawn) [TCMDC-141399]	> 20 µM	56 nM and 45 nM	7500 nM and 5300 nM	4.4 µM	840 nM	> 20000 nM	> 20 µM	6.5 µM and 4.2 µM	> 20 µM
